Source: patent publication US7629150B2, “Transformed cell harboring DNA or RNA encoding sugar chain synthesizing agent having β1,3-N-acetylglucosaminyltransferase activity” (Kyowa Hakko Kirin Co., Ltd., priority 2000, dated 2009)

Key:
Format in all cases: biochemical
G6sec1 = target: T1, G6sec1 (Homo sapiens, UniProt Q9BYG0); assay: β1,3-N-acetylglucosaminyltransferase activity of purified FLAG peptide-fused G6 polypeptide, 2-aminobenzamide-labeled oligosaccharide substrates; details: 2-aminobenzamide-labeled oligosaccharides; LNnT defined as 100%
T1 construct: made in house; host or cells: Sf21 insect cells infected with pVL1393-F2G6sec1-derived recombinant baculovirus
T1 sequence (Q9BYG0 36-378): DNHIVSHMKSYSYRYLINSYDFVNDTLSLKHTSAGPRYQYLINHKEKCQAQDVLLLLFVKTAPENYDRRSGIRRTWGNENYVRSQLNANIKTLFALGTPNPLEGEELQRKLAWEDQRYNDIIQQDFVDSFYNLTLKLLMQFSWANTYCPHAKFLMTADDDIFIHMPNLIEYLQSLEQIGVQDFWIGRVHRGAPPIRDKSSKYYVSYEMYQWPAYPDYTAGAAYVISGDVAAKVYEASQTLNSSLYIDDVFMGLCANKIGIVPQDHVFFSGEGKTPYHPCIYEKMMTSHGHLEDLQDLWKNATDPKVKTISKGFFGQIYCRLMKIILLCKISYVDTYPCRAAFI
Protocol: (§1) β1,3-N-Acetylglucosaminyltransferase activity of the FLAG peptide-fused G6 polypeptide secreted and produced in insect cells was measured by using the eluate prepared in Example 8(6). The method of Example 7 was used for the activity measurement.
(§2) As substrates, oligosaccharides [LNnT, Galβ1-4GlcNAcβ1-3Galβ1-4GlcNAc (hereinafter referred to as “2LN”), Galβ1-4GlcNAcβ1-3Galβ1-4GlcNAcβ1-3Galβ1-4GlcNAc (hereinafter referred to as “3LN”), Galβ1-4GlcNAcβ1-3Galβ1-4GlcNAcβ1-3Galβ1-4GlcNAcβ1-3Galβ1-4GlcNAc (hereinafter referred to as “4LN”), Galβ1-4GlcNAcβ1-3Galβ1-4GlcNAcβ-3Galβ1-4GlcNAcβ1-3Galβ1-4GlcNAcβ1-3Galβ1-4GlcNAc (hereinafter referred to as “5LN”), or Galβ1-4(SO3-6)GlcNAcβ1-3Galβ1-4(SO3-6)GlcNAc (hereinafter referred to as “L2L2”)] were labeled with 2-aminobenzamide and used. 2-Aminobenzamide-labeling of oligosaccharides was carried out using SIGMA 2AB glycan labeling kit (manufactured by Oxford Glycoscience) according to the manufacture's instructions of the kit. LNnT was purchased from Oxford Glycosystems. Other oligosaccharides were obtained from Seikagaku Corporation.
Specifically, the reaction was carried out at 37° C. for 16 hours in 20 μl of an assay solution [150 mmol/l sodium cacodylate (pH 7.2), 50 mmol/l UDP-GlcNAc (manufactured by SIGMA), 0.4% Triton CF-54, 10 mmol/l MnCl2, 5 μmol/12-aminobenzamide-labeled sugar chain substrate, the above purified enzyme solution], and then the product was detected by high performance liquid chromatography (HPLC, details will be described below). […]
(§3) The assay solution after completion of the reaction was treated at 100° C. for 5 minutes and then mixed with 50 μl of pure water for HPLC and centrifuged at 10,000×g for 5 minutes to obtain the supernatant. To a tube containing the assay solution, 50 μl of pure water for HPLC was added again, the tube was washed, and suparnatant was obtained by centrifugation at 10,000×g for 5 minutes and was combined with the first supernatant. Next, the supernatant was passed through Ultrafree-MC column (manufactured by Millipore) and a portion thereof (10 μl) was subjected to HPLC. The Ultrafree-MC column was used according to the method described in the manufacture's instructions attached thereto.
(§4) The HPLC was carried out using TSK-gel ODS-80Ts Column (4.6×300 mm; manufactured by TOSOH) as a column and 0.02 mol/l ammonium acetate buffer containing 7% methanol (pH 4.0) as an eluant at an elution temperature of 50° C. and a flow rate of 1 ml/min.
(§5) The product was detected using a fluorescence spectrophotometer FP-920 (manufactured by JASCO Corporation) (excitation wavelength: 330 nm, radiation wavelength: 420 nm).

G6sec2 [1] = target: T2, G6sec2 (Homo sapiens, UniProt Q9BYG0); assay: as above; details: 2-aminobenzamide-labeled oligosaccharides, LNnT defined as 100%; for Relative activity (%) Test 2 G6sec2: enzyme prepared again
T2 construct: made in house; host or cells: Sf21 insect cells infected with pVL1393-F2G6sec2-derived recombinant baculovirus
T2 sequence (Q9BYG0 39-378): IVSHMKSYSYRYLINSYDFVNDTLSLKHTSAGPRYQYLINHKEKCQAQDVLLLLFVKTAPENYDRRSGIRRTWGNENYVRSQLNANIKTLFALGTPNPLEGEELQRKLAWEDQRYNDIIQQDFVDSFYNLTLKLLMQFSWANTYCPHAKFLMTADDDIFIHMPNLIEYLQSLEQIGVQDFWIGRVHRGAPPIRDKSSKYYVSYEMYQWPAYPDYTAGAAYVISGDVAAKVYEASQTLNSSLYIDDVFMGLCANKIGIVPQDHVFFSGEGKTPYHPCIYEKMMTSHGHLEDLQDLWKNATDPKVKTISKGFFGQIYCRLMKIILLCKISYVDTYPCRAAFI
Protocol: as §1, §2
Specifically, the reaction was carried out at 37° C. for 16 hours in 20 μl of an assay solution [150 mmol/l sodium cacodylate (pH 7.2), 50 mmol/l UDP-GlcNAc (manufactured by SIGMA), 0.4% Triton CF-54, 10 mmol/l MnCl2, 5 μmol/12-aminobenzamide-labeled sugar chain substrate, the above purified enzyme solution], and then the product was detected by high performance liquid chromatography (HPLC, details will be described below). As the enzyme, an eluate (1.5 μl) prepared from a culture supernatant of Sf21 infected with the recombinant virus derived from pVL1393-F2G6sec1 or an eluate (1.4 μl) prepared from a culture supernatant of Sf21 infected with the recombinant virus derived from pVL1393-F2G6sec2, prepared in Example 8(6), was used.
as §3, §4, §5
Also, a purified enzyme (G6sec2) was again prepared using the method shown in Example 8(6), its substrate specificity was again examined, and the results are also shown in Table 1 (Test 2 in Table 1). The purified enzyme (280 μl) was prepared from 30 ml of a culture supernatant of Sf21 infected with the recombinant virus derived from pVL1393-F2G6sec2, and the assay was carried out using a 4 μl portion thereof. Relative activities when the activity measured using 2-aminobenzamide-labeled LNnT as the substrate is defined as 100% are shown in the table.

G6sec2 [2] = target: T2, G6sec2; assay: β1,3-N-acetylglucosaminyltransferase activity using pyridylaminated oligosaccharides as substrates; details: pyridylaminated oligosaccharides 50 μmol/l, 37° C., 14.5 hours, LNnT defined as 100%
Protocol: After carrying out the reaction at 37° C. for 14.5 hours in 30 μl of an assay solution [150 mmol/l sodium cacodylate (pH 7.2), 50 mmol/l UDP-GlcNAc (manufactured by SIGMA), 0.4% Triton CF-54, 10 mmol/l MnCl2, 50 μmol/l pyridylaminated sugar chain substrate, a purified enzyme solution (G6sec2)], the product was detected by HPLC. The purified enzyme (G6sec2) was obtained according to the method shown in Example 8(6). The purified enzyme (280 μl) was prepared from 30 ml of a culture supernatant of Sf21 infected with the recombinant virus derived from pVL1393-F2G6sec2, and the assay was carried out using 5 μl thereof. As substrates, LnNT, lacto-N-tetraose (Galβ1-3GlcNAcβ1-3Galβ1-4Glc (hereinafter referred to as “LNT”), lacto-N-fucopentaose II (Galβ1-3(Fucα1-4)GlcNAcβ1-3Galβ1-4Glc; hereinafter referred to as “LNFP-II”), lacto-N-fucopentaose III (Galβ1-4(Fucα1-3)GlcNAcβ1-3Galβ1-4Glc; hereinafter referred to as “LNFP-III”), lacto-N-fucopentaose V (Galβ1-3GlcNAcβ1-3Galβ1-4(Fucα1-3)Glc; hereinafter referred to as “LNFP-V”), and lacto-N-difucohexaose II (Galβ1-3(Fucα1-4)GlcNAcβ1-3Galβ1-4(Fucα1-3)Glc; hereinafter referred to as “LNDFH-II”) (all manufactured by Oxford Glycosystems) were fluorescently-labeled with aminopyridine and used. The substrates were fluorescently-labeled according to a conventional method [Agric. Biol. Chem., 54, 2169 (1990)].
After carrying out the reaction on each substrate using an assay solution containing UDP-GlcNAc (saccharide donor) and an assay solution containing no donor and subsequently analyzing by HPLC, peaks appeared only in the assay solution containing UDP-GlcNAc was defined as products.
The assay solution after completion of the reaction was treated at 100° C. for 5 minutes and then centrifuged at 10,000×g for 5 minutes to obtain a supernatant, and a part thereof (5 μl) was subjected to HPLC.
The HPLC was carried out using TSK-gel ODS-80Ts Column (4.6×300 mm; manufactured by TOSOH) and 0.02 mol/l ammonium acetate buffer (pH 4.0) as the eluant at an elution temperature of 50° C. and a flow rate of 0.5 ml/min.
Detection and determination of products were carried out using a fluorescence spectrophotometer FP-920 (manufactured by JASCO Corporation) (excitation wavelength: 320 nm, radiation wavelength: 400 nm).

G6sec2 [3] = target: T2, G6sec2; assay: β1,3-N-acetylglucosaminyltransferase activity using glycolipids as substrates (purified enzyme); details: glycolipid substrate; purified G6sec2
Protocol: Using glycolipids as the substrate, β1,3-N-acetylglucosaminyltransferase activity of the G6 polypeptide was measured according to known methods [FEBS, 462, 289 (1999), J. Biol. Chem., 269, 14730-14737 (1994), J. Biol. Chem., 267, 23507 (1992), J. Biol. Chem., 267, 2994 (1992)]. Specifically, the reaction was carried out at 37° C. for 16 hours in 20 μl of a reaction solution [150 mmol/l sodium cacodylate (pH 7.2), 10 mmol/l UDP-GlcNAc (manufactured by SIGMA), 480 μmol/l UDP—[^14C]GlcNAc (manufactured by Amersham), 0.4% Triton CF-54, 10 mmol/l MnCl2, […] glycolipid, purified enzyme (G6sec2)]. As the purified enzyme (G6sec2), 10 μl of the enzyme obtained in the above (2) was used. As glycolipids, lactosylceramide, paragloboside, galactosylceramide (Type I) and galactosylceramide (Type II) were used. Paragloboside was obtained from Yasunori Kushi at Tokyo Medical and Dental University. Other glycolipids were purchased from SIGMA. After completion of the reaction, 200 μl of 0.1 mol/l KCl was added and lightly centrifuged to obtain the supernatant. The supernatant was passed through Sep-Pak plus C18 Cartridge (manufactured by Waters) which had been washed once with 10 ml of methanol and equilibrated by washing twice with 10 ml of 0.1 mol/l KCl to adsorb the glycolipid in the supernatant onto the cartridge. After washing the cartridge twice with 10 ml of pure water for HPLC, the adsorbed glycolipid was eluted with 5 ml of methanol. After concentrating the eluate to about 10 μl using a vacuum dryer, the concentrated solution was plotted on a TLC plate (HPTLC plate Silica gel 60: manufactured by MERCK) and developed using a developing solvent comprising a composition of chloroform:methanol:water (containing 0.2% CaCl2)=65:35:8. After the development was carried out to a position 5 mm from the upper end of the TLC plate, the plate was dried and then the radioactivity incorporated into the glycolipid was measured using Bio Image Analyzer BAS 2000 (manufactured by Fuji Photo Film).

Relative activity (%) Test 1 G6sec1 (G6sec1) [%] | Relative activity (%) Test 1 G6sec2 (G6sec2 [1]) [%] | Relative activity (%) Test 2 G6sec2 (G6sec2 [1]) [%] | Relative activity (%) (G6sec2 [2]) | Compound | also measured
92.9 | 95.8 | 79.2 | – | CC(=O)N[C@H]1[C@H](O[C@H]2[C@@H](O)[C@@H](CO)O[C@@H](O[C@H]3[C@H](O)[C@@H](NC(C)=O)[C@H](O[C@H]4[C@@H](O)[C@@H](CO)O[C@@H](O[C@H]5[C@H](O)[C@@H](NC(C)=O)C(O)O[C@@H]5CO)[C@@H]4O)O[C@@H]3CO)[C@@H]2O)O[C@H](CO)[C@@H](O[C@@H]2O[C@H](CO)[C@H](O)[C@H](O)[C@H]2O)[C@@H]1O (stereo partly shown) [3LN, Galβ1-4GlcNAcβ1-3Galβ1-4GlcNAcβ1-3Galβ1-4GlcNAc] | –
– | – | – | <0.05 | CC(=O)N[C@H]1[C@H](O[C@H]2[C@@H](O)[C@@H](CO)O[C@@H](O[C@@H]([C@H](O[C@@H]3O[C@@H](C)[C@@H](O)[C@@H](O)[C@@H]3O)[C@@H](O)C=O)[C@H](O)CO)[C@@H]2O)O[C@H](CO)[C@@H](O[C@@H]2O[C@@H](C)[C@@H](O)[C@@H](O)[C@@H]2O)[C@@H]1O[C@@H]1O[C@H](CO)[C@H](O)[C@H](O)[C@H]1O [LNDFH-II, lacto-N-difucohexaose II] | –
– | – | – | <0.05 | CC(=O)N[C@H]1[C@H](O[C@H]2[C@@H](O)[C@@H](CO)O[C@@H](O[C@@H]([C@H](O)[C@@H](O)C=O)[C@H](O)CO)[C@@H]2O)O[C@H](CO)[C@@H](O[C@@H]2O[C@@H](C)[C@@H](O)[C@@H](O)[C@@H]2O)[C@@H]1O[C@@H]1O[C@H](CO)[C@H](O)[C@H](O)[C@H]1O [LNFP-II, lacto-N-fucopentaose II] | –
– | – | – | 5.5 | CC(=O)N[C@H]1[C@H](O[C@H]2[C@@H](O)[C@@H](CO)O[C@@H](O[C@H]3[C@H](O)[C@@H](O)C(O)O[C@@H]3CO)[C@@H]2O)O[C@H](CO)[C@@H](O)[C@@H]1O[C@@H]1O[C@H](CO)[C@H](O)[C@H](O)[C@H]1O (stereo partly shown) [LNT, lacto-N-tetraose] | –
– | – | 5.9 | – | Galβ1-4(SO3-6)GlcNAcβ1-3Galβ1-4(SO3-6)GlcNAc [L2L2] | –
13.2 | 21.5 | 10.0 | – | Galβ1-4GlcNAcβ1-3Galβ1-4GlcNAcβ1-3Galβ1-4GlcNAcβ1-3Galβ1-4GlcNAc [4LN] | –
9.3 | 11.5 | 12.3 | – | Galβ1-4GlcNAcβ1-3Galβ1-4GlcNAcβ-3Galβ1-4GlcNAcβ1-3Galβ1-4GlcNAcβ1-3Galβ1-4GlcNAc [5LN] | –
– | – | – | – | galactosylceramide (Type I) | β1,3-N-acetylglucosaminyltransferase activity for the glycolipid (G6sec2 [3]): did not show activity
– | – | – | 4.9 | lacto-N-fucopentaose III [LNFP-III] | –
– | – | – | 4.9 | lacto-N-fucopentaose V [LNFP-V] | –
